Measured values as given in patent US10059717B2, “Urea compounds containing 3,4-dihydropyrimido[4,5-D]pyrimidin-2(1H)-one skeleton as protein kinase inhibitors” (KOREA INSTITUTE OF SCIENCE AND TECHNOLOGY, priority 2016, dated 2018).

How the values were obtained:
Assay in all cases: Kinase panel biochemical assay
Settings in all cases: 1 μM single concentration, read-out: % residual enzyme activity
TRKB = TRKB (Homo sapiens, UniProt Q16620)
Description: (§1) In order to measure the protein kinase inhibitory activity (% inhibition) of the compounds of the present invention, biochemical assays were performed on the full kinase panel listed in the following Table 1.
(§2) As an test compound, 1-(3-(7-((6-(4-ethylpiperazine-1-carbonyl)pyridin-3-yl)amino)-1-methyl-2-oxo-1,4-dihydropyrimido[4,5-d]pyrimidin-3(2H)-yl)-4-methylphenyl)-3-(2-methoxyphenyl)urea (Compound No. 14) was used. The kinase inhibitory efficacy was measured upon treatment with a 1 μM single concentration of the test compound to calculate % residual enzyme activity value.
(§3) ABL1, FGFR2, TAOK2/TAO1, EPHA5, EPHB2, EPHB3, RET, LYN B, EPHA2, FRK/PTK5, EPHA8, LCK, EPHB4, FYN, KHS/MAP4K5, DDR1, EPHA3, P38a/MAPK14, EPHA4, FMS, EPHB1, HCK, FGFR1, ABL2/ARG, EPHA6, c-Src, ACK1, FLT4NEGFR3, ERBB4/HER4, DDR2, KDRNEGFR2, LYN, ZAK/MLTK, YES/YES1, BLK, FGR, MLCK2/MYLK2, TAOK1, BMX/ETK, BTK, EPHA1, JAK1, P38b/MAPK11, TIE2/TEK, FLT1NEGFR1, TXK, SRMS, RAF1, SIK1, MLK3/MAP3K11, PEAK1, TRKA, EPHA7, GLK/MAP4K3, MLK2/MAP3K10, TEC, CSK, TRKC, FES/FPS, SIK2, FGFR3, BRK, YSK4/MAP3K19, ARAF, PDGFRb, TNK1, GCK/MAP4K2, PDGFRa, TNIK, TAK1, ERBB2/HER2, LIMK1, HIPK4, FER, EGFR, JAK2, HPK1/MAP4K1, TRKB, RIPK3, LOK/STK10, LIMK2, MLK1/MAP3K9, BRAF, MEKK3, MEK5, STK32B/YANK2, FGFR4, MEKK2, SLK/STK2, FLT3, PKAcg, TAOK3/JIK, TYRO3/SKY, SIK3, IR, LRRK2, PYK2, NEK11, p70S6K/RPS6KB1, LATS2.

KDRNEGFR2 = KDRNEGFR2 (Homo sapiens, UniProt P35968)
Description: as §1, §2, §3

BTK = BTK (Homo sapiens, UniProt Q06187)
Description: as §1, §2, §3

EPHA8 = EPHA8 (Homo sapiens, UniProt P29322)
Description: as §1, §2, §3

EPHA4 = EPHA4 (Homo sapiens, UniProt P54764)
Description: as §1, §2, §3

BMX/ETK = BMX/ETK (Homo sapiens, UniProt P51813)
Description: as §1, §2, §3

FGFR2 = FGFR2 (Homo sapiens, UniProt P21802)
Description: as §1, §2, §3

LATS2 = LATS2 (Homo sapiens, UniProt Q9NRM7)
Description: as §1, §2, §3

LYN = LYN (Homo sapiens, UniProt P07948)
Description: as §1, §2, §3

ACK1 = ACK1 (Homo sapiens, UniProt Q07912)
Description: as §1, §2, §3

EPHB4 = EPHB4 (Homo sapiens, UniProt P54760)
Description: as §1, §2, §3

JAK2 = JAK2 (Homo sapiens, UniProt O60674)
Description: as §1, §2, §3

c-Src = c-Src (Homo sapiens, UniProt P12931)
Description: as §1, §2, §3

BRK = BRK (Homo sapiens, UniProt Q13882)
Description: as §1, §2, §3

SRMS = SRMS (Homo sapiens, UniProt Q9H3Y6)
Description: as §1, §2, §3

DDR2 = DDR2 (Homo sapiens, UniProt Q16832)
Description: as §1, §2, §3

P38b/MAPK11 = P38b/MAPK11 (Homo sapiens, UniProt Q15759)
Description: as §1, §2, §3

STK32B/YANK2 = STK32B/YANK2 (Homo sapiens, UniProt Q9NY57)
Description: as §1, §2, §3

TEC = TEC (Homo sapiens, UniProt P42680)
Description: as §1, §2, §3

TNK1 = TNK1 (Homo sapiens, UniProt Q13470)
Description: as §1, §2, §3

RAF1 = RAF1 (Homo sapiens, UniProt P04049)
Description: as §1, §2, §3

MEKK3 = MEKK3 (Homo sapiens, UniProt Q99759)
Description: as §1, §2, §3

ARAF = ARAF (Homo sapiens, UniProt P10398)
Description: as §1, §2, §3

HPK1/MAP4K1 = HPK1/MAP4K1 (Homo sapiens, UniProt Q92918)
Description: as §1, §2, §3

PKAcg = PKAcg (Homo sapiens, UniProt P22612)
Description: as §1, §2, §3

FER = FER (Homo sapiens, UniProt P16591)
Description: as §1, §2, §3

FMS = FMS (Homo sapiens, UniProt P07333)
Description: as §1, §2, §3

EPHA2 = EPHA2 (Homo sapiens, UniProt P29317)
Description: as §1, §2, §3

TNIK = TNIK (Homo sapiens, UniProt Q9UKE5)
Description: as §1, §2, §3

TAOK1 = TAOK1 (Homo sapiens, UniProt Q7L7X3)
Description: as §1, §2, §3

TRKC = TRKC (Homo sapiens, UniProt Q16288)
Description: as §1, §2, §3

Measured: remaining activity at 1 µM

SRMS, sequence (Q9H3Y6 whole entry): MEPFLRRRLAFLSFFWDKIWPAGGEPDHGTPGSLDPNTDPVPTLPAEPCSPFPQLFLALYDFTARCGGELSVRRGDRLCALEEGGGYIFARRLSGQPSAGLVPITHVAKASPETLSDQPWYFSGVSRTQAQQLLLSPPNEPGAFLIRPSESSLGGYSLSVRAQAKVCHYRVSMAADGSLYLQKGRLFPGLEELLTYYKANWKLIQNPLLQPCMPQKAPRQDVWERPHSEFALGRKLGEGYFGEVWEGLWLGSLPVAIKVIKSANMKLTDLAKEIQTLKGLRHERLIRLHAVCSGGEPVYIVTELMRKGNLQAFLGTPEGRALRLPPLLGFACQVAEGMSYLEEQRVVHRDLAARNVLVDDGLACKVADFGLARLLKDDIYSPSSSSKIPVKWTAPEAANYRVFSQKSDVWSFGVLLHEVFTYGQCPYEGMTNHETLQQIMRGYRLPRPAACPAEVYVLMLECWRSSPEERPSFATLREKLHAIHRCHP
FER, sequence (P16591 whole entry): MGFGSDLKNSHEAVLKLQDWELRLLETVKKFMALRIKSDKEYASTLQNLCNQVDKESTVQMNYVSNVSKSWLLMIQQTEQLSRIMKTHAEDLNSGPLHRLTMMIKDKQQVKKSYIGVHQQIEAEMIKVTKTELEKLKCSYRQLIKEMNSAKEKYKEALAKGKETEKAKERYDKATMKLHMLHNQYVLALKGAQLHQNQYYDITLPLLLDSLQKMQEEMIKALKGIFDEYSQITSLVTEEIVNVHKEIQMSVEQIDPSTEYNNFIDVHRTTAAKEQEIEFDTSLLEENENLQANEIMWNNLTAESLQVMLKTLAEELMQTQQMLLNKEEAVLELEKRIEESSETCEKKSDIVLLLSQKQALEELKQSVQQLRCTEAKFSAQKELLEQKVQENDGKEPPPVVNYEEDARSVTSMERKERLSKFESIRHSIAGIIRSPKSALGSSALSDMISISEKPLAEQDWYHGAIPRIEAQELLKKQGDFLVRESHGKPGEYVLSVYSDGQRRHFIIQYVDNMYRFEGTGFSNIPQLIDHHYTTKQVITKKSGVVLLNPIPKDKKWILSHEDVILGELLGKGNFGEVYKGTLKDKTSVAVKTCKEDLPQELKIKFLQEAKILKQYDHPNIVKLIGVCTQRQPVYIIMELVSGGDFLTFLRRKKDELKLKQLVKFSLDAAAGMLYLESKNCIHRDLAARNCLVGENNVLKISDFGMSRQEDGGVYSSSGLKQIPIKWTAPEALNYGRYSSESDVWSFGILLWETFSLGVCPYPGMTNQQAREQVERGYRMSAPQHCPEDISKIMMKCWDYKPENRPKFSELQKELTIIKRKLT
EPHA4, sequence (P54764 20-986): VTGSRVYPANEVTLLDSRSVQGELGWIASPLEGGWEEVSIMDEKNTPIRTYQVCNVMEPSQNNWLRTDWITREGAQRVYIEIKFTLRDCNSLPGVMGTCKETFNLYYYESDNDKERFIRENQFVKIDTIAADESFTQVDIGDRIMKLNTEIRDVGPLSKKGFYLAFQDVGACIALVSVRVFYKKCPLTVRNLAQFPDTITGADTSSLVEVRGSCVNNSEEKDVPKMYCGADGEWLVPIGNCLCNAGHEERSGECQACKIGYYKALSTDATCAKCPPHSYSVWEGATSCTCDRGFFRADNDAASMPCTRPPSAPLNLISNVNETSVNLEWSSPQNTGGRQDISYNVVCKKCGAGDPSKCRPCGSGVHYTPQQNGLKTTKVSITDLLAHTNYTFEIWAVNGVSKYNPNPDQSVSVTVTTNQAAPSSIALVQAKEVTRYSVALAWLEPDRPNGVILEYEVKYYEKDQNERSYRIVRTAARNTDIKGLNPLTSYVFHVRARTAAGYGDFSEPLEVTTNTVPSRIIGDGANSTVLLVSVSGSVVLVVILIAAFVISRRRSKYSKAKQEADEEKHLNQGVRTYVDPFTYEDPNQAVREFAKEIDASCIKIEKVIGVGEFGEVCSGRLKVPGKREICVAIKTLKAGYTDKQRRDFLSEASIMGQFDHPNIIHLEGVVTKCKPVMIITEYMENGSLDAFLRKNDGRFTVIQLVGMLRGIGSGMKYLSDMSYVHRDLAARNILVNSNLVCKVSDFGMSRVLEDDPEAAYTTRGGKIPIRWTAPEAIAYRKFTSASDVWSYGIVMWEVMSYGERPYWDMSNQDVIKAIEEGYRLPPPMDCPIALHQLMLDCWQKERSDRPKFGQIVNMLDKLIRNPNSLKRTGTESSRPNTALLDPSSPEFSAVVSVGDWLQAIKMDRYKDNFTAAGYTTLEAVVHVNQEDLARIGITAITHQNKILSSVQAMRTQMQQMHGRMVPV
HPK1/MAP4K1, sequence (Q92918 whole entry): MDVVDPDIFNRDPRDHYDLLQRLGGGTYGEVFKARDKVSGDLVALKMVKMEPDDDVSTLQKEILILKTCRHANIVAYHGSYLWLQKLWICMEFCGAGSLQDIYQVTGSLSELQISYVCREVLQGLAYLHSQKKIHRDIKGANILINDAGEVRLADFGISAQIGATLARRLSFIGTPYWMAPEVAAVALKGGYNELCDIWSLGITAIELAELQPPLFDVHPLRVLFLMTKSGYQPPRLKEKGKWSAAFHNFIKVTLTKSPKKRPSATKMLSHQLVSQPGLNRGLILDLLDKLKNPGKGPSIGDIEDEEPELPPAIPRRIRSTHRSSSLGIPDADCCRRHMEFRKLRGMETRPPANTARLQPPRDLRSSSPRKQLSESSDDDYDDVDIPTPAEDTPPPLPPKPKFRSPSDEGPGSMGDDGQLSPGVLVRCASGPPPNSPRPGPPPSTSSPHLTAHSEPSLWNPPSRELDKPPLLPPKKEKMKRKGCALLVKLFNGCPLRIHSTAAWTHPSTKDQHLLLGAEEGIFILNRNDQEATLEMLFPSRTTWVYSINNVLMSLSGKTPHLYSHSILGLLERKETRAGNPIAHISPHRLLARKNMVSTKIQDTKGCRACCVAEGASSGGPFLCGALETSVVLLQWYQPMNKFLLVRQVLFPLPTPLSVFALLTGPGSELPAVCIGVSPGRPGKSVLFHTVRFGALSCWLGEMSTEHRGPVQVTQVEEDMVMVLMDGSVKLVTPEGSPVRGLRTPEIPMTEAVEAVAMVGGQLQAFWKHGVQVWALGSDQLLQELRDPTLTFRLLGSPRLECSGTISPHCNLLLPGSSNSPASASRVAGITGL
TNK1, sequence (Q13470 whole entry): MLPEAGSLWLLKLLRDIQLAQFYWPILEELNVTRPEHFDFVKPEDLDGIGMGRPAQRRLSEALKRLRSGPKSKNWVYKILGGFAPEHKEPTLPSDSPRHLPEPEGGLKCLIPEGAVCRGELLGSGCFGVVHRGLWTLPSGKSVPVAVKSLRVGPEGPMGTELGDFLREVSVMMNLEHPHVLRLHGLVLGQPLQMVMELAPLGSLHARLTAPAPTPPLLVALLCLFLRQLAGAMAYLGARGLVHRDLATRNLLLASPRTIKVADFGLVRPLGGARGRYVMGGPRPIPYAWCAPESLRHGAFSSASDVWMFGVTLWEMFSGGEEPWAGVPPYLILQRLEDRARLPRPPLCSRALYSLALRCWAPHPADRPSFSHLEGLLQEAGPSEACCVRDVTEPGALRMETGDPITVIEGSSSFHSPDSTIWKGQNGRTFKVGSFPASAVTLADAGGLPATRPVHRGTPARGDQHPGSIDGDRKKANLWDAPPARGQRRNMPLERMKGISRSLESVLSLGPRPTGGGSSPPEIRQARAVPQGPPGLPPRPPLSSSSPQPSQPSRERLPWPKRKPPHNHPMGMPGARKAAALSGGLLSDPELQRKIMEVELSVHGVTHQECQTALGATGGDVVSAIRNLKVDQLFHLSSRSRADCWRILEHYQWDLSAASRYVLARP
EPHA2, sequence (P29317 24-976): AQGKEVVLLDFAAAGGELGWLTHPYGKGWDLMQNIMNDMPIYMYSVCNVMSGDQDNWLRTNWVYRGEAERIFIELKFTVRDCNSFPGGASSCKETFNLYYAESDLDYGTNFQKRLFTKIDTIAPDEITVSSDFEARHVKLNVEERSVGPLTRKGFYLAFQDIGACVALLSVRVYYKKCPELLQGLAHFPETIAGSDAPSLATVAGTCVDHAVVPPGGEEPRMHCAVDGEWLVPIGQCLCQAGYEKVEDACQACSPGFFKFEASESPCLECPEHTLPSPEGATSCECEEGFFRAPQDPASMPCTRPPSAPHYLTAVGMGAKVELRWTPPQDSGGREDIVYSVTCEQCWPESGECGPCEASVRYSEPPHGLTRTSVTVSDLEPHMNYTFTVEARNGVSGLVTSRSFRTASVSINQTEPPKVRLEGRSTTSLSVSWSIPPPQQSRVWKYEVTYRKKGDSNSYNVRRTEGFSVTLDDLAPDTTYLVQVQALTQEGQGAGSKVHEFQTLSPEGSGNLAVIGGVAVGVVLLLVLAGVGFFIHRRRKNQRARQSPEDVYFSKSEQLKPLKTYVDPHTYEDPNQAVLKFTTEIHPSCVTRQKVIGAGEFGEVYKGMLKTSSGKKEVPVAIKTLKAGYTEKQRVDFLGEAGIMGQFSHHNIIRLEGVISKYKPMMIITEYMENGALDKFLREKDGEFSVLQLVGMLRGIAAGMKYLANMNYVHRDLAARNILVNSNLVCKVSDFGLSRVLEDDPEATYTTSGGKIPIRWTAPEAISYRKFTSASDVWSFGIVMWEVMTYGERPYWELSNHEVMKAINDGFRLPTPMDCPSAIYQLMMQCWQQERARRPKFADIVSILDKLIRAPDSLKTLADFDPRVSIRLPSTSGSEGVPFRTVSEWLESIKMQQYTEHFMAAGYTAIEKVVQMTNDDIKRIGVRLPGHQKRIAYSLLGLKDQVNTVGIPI

CCN1CCN(C(=O)c2ccc(Nc3ncc4c(n3)N(C)C(=O)N(c3cc(NC(=O)Nc5ccccc5OC)ccc3C)C4)cn2)CC1 [Compound No. 14, 1-(3-(7-((6-(4-ethylpiperazin-1-carbonyl)pyridin-3-yl)amino)-1-methyl-2-oxo-1,4-dihydropyrimido[4,5-d]pyrimidin-3(2H)-yl)-4-methylphenyl)-3-(2-methoxyphenyl)urea]
≤ 30%: all assays above
